Assay results as given in PMC6353801, “Enhanced Anti-diabetic Effect of Berberine Combined With Timosaponin B2 in Goto-Kakizaki Rats, Associated With Increased Variety and Exposure of Effective Substances Through Intestinal Absorption” (Frontiers in Pharmacology, 2019).

Key:
[1] = PK in systemic plasma of GK rats after repeated oral administration (day 35); format: in vivo, rat; settings: GK rats, systemic plasma; for Cmax / half-life / Tmax / AUC: male, GK, rat, po, mean ± SE, n = 8; for Cmax / half-life / Tmax: plasma; for half-life: read-out: T1/2 (converted); for Tmax: read-out: Tmax; for AUC: read-out: AUC
Method: Analyses were performed on a Shimadzu LCMS-8030 triple quadrupole system (Shimadzu Corp., Japan) equipped with an electrospray ionization source. Data processing was performed using Shimadzu LC–MS LabSolutions (version 5.42 SP4, Shimadzu, Japan). Chromatographic separation was carried out on a Waters CORTECS C18+ column (100 mm × 2.1 mm, 2.7 μm, Ireland) with a security guard C18+ column (5 mm × 2.1 mm, 2.7 μm, Ireland). […] The gradient elution was 85% B from 0 to 2.5 min, 85% B–83% B from 2.5 to 3.0 min, 83% B from 3.0 to 6.0 min, 83% B–40% B from 6.0 to 6.5 min, 40% B from 6.5 to 7.0 min, 40% B–85% B from 7.0 to 7.2 min, and 85% B from 7.2 to 12 min. […] The optimized precursor-to-product ion pairs (collision energy) were in the positive mode as follows: m/z 579.20–255.15 (28 V) for TB-2 (at 4.1 min) and timosaponin A3 (at 6.1 min) and 271.50–154.70 (25 V) for tolbutamide (IS, at 5.8 min). […] If the concentrations of the compounds were over the linear range, the relevant samples were diluted with blank matrix by a factor of 10. […] Four-week-old male GK rats were fed a high-fat diet, and age-matched non-diabetic Wistar rats were fed standard chow as the control group. Under these dietary conditions, blood glucose was estimated each week for 7 weeks in 12-h fasted rats using a portable glucometer (One Touch Sure Step Meter, Johnson & Johnson, United States) by drawing the blood from the tail vein. GK rats with fasting blood glucose levels (FBG) above 16.7 mM were considered as diabetic rats, and only uniformly diabetic rats were used in this study. […] All the drugs were suspended in 0.5% carboxymethylcellulose sodium (CMC-Na) solution for oral gavage (10 ml/kg) once per day (at 9:00) for 6 weeks. Simultaneously, the Wistar and vehicle groups received vehicle over the treatment period. Food consumption and body weight were measured every week throughout the experimental periods. Non-fasting blood glucose (NFBG) levels were determined by collecting blood samples from the tail vein (at 9:00), and FBG levels were determined after a 6-h fast (at 15:00) on days 0, 7, 14, 21, and 42. On day 28, an oral glucose tolerance test (OGTT) was performed after an overnight fast. […] On day 42, the rats were anesthetized with urethane (1.4 g/kg, dissolved in saline) after an overnight fast and were sacrificed to collect the liver, kidney, heart, and spleen. The organs were weighed after washing with saline and drying to calculate the organ coefficient, namely, the ratio between the weight of organs and the body in each rat. The liver samples were diluted with 3 volumes (0.5 g/1.5 ml) of saline and homogenized. The liver homogenates and plasma samples (100 μl) were precipitated with three volumes of acetonitrile (containing 10 μg/ml tolbutamide). […] Then, 100 μl of the original mobile phase was added, and the samples were vortexed for 5 min and centrifuged at 13,000 rpm at 4°C for 10 min. Finally, the supernatant was used for HPLC–QQQ–MS/MS analysis. A non-compartmental analysis was performed using WinNonlin software (Pharsight 6.2, Raleigh, NC, United States) to calculate the PK parameters. The significance of PK parameters in normal rats, generated by the sparse method in WinNonlin, was assessed with Welch’s unequal variances t-test. The significance of the other results was assessed using two-tailed Student’s t-tests. Statistical significance was defined as P < 0.05.

[2] = usually in various species; ref Liu et al., 2016; cited from earlier work
[3] = Liver distribution in Wistar rats; settings: for AUC ± SE / Cmax / half-life / Tmax: n = 5; for Cmax / half-life / Tmax: male, Wistar, rat, po; for Cmax: Cmax ± SE; for half-life: T1/2, Wistar rats
primary rat hepatocytes = assay: Hepatic metabolism in primary hepatocytes; settings: 3 h
[4] = PK in portal vein plasma of Wistar rats (before hepatic clearance); settings: for AUC / Cmax / Tmax / half-life: male, Wistar, rat, po
[5] = PK in systemic plasma of Wistar rats (after hepatic clearance) and liver extraction ratio; settings: for ERliver (liver extraction ratio): (AUCpor−AUCsys)/AUCpor; for Tmax: n = 5
[6] = 33.3 mg/kg, day 35, oral BBR+TB-2 (66.7+33.3 mg/kg)
[7] = 66.7 mg/kg, day 35, oral BBR 66.7 mg/kg alone
[8] = liver, 33.3 mg/kg, Wistar rats, liver, single oral BBR+TB-2 (66.7+33.3 mg/kg)
[9] = liver, 66.7 mg/kg, Wistar rats, single oral BBR 66.7 mg/kg alone
[10] = male, Wistar, rat, systemic plasma, po, 66.7 mg/kg
[11] = male, Wistar, rat, systemic plasma, po, 100 mg/kg

## COc1ccc2cc3[n+](cc2c1OC)CCc1cc2c(cc1-3)OCO2 [BBR, berberine]
[1]; day 35
  increase in AUC on combination vs single treatment: 107%
  increase in Cmax on combination vs single treatment: 695%
[1]; [6]
  Cmax: 42.2 ± 17.4 ng/mL
  half-life: 9.3 ± 2.5 h
  Tmax: 0.9 ± 0.1 h
  AUC: 155 ± 59.7 ng·h/mL
[1]; [7]
  Cmax: 5.3 ± 0.4 ng/mL
  half-life: 28.1 ± 11.7 h
  Tmax: 4.6 ± 1.5 h
  AUC: 74.8 ± 3.5 ng·h/mL
[2]
  bioavailability: < 1%
[3]; Wistar rats, liver
  increase in AUC on co-administration vs single treatment: didn’t elicit statistical significance
  increase in Cmax on co-administration vs single treatment: 136%
[3]; Wistar rats, liver, single oral BBR 66.7 mg/kg alone
  AUC ± SE: 3255.1 ± 247.5 h ∗ ng/g
[3]; Wistar rats, liver, single oral BBR+TB-2 (66.7+33.3 mg/kg)
  AUC ± SE: 4600.3 ± 645.1 h ∗ ng/g
[3]; [8]
  Cmax: 1880 ± 418 ng/g
  Tmax: 2 h
[3]; liver, 33.3 mg/kg, liver, single oral BBR+TB-2 (66.7+33.3 mg/kg)
  half-life: 6.9 h
[3]; [9]
  Cmax: 795 ± 157 ng/g
  Tmax: 2 h
[3]; liver, 66.7 mg/kg, single oral BBR 66.7 mg/kg alone
  half-life: 14.8 h
[3]; normal rats, in the plasma and liver
  improvement of levels on co-administration: 41–114%
Primary rat hepatocytes; BBR 1 μM, 37°C
  share of compound disappearing after incubation: approximately 80%
Primary rat hepatocytes; TB-2 1 μM, BBR (5 μM, 30 μM)
  effect on TB-2 levels after incubation: no improvement
[4]; Wistar rats
  increase in AUC on co-administration vs single treatment: 114%
[4]; 66.7 mg/kg
  AUC: 198 ± 22.2 ng·h/mL
  Cmax: 63.1 ± 18.5 ng/mL
  Tmax: 2 h
  half-life: 9.8 h
[4]; 100 mg/kg
  AUC: 424 ± 60.5 ng·h/mL
  Cmax: 145 ± 50.3 ng/mL
  Tmax: 2 h
  half-life: 10.5 h
[5]; Wistar rats, oral BBR 66.7 mg/kg alone
  ERliver (liver extraction ratio): 87.3%
[5]; Wistar rats, oral BBR+TB-2 (100 mg/kg)
  ERliver (liver extraction ratio): 90.0%
[5]; Wistar rats, BBR treatments
  AUC in portal vein plasma, fold higher than in systemic plasma: 6.9 fold
[5]; Wistar rats, TB-2+BBR treatments
  AUC in portal vein plasma, fold higher than in systemic plasma: 9.1 fold
[5]; Wistar rats, single or combination treatments
  AUC in portal vein plasma, fold higher than in systemic plasma (discussion): approximately 10 fold
[5]; Wistar rats, systemic plasma
  increase in AUC on co-administration vs single treatment: didn’t increase
[5]; Wistar rats, systemic plasma, single oral BBR 66.7 mg/kg alone
  Tmax: 0.2 h
[5]; male, Wistar, rat, plasma, po, 66.7 mg/kg, Tmax, Wistar rats, systemic plasma, single oral BBR 66.7 mg/kg alone
  Tmax: 0.167 h
[5]; [10]
  AUC: 25.1 ± 4.1 ng·h/mL
  Cmax: 11.1 ± 3.4 ng/mL
  half-life: 1.9 h
[5]; [11]
  AUC: 42.1 ± 11.7 ng·h/mL
  Cmax: 10.8 ± 3.9 ng/mL
  half-life: 2.3 h
[5]; male, Wistar, rat, systemic plasma, po, 100 mg/kg, Tmax, Wistar rats, systemic plasma, single oral BBR+TB-2 (100 mg/kg)
  Tmax: 2 h
